The values below come from patent publication US7238340B1, “Monoamine, diamide, thiol-containing metal chelating agents” (CIS bio international, priority 1991, dated 2007).

Series [1] is described as follows: In vivo imaging of deep vein thrombosis with Tc-99m labeled thrombus targeting peptide, canine model. The conditions noted are these: mongrel, dog, thrombus, iv, total radioactivity.
Excerpt: (§1) Mongrel dogs (25–35 lb., fasted overnight) were sedated with a combination of ketamine and aceprozamine intramuscularly and then anesthetized with sodium pentabarbital intravenously. In each animal, an 18-gauge angiocath was inserted in the distal half of the right femoral vein and a 5 mm or 8 mm Dacron®-entwined stainless steel embolization coil (Cook Co., Bloomington Ind.) was placed in the femoral vein at approximately mid-femur. The catheter was removed, the wound sutured and the placement of the coil documented by X-ray. The animals were then allowed to recover overnight.
(§2) One day following coil placement, each animal was re-anesthetized, intravenous saline drips placed in each foreleg and a urinary bladder catheter inserted to collect urine. The animal was placed supine under a gamma camera equipped with a low-energy, all purpose collimator and photopeaked for Tc-99m. […] The second line was maintained for blood collection.
(§3) Gamma camera imaging was started simultaneously with injection. Anterior images over the heart were acquired as a dynamic study (10 sec image acquisitions) over the first 10 min, and then as static images at 1, 2, 3 and 4h post-injection. Anterior images over the legs were acquired for 500,000 counts or 20 min (whichever is shorter), at approximately 10–20 min, and at approximately 1, 2, 3 and 4h post-injection. Leg images were collected with a lead shield placed over the bladder.
(§4) Following collection of the final image, each animal was deeply anesthetized with pentobarbital. Two blood samples were collected using a heparinized syringe followed by a euthanizing dose of saturated potassium chloride solution administered by intercardiac or bolus intravenous injection. […] The thrombus, coil and coil Dacron fibres were then dissected free of the vessel. The thrombus, saline-washed vessel samples, coil and coil Dacron® fibres were separated, and each sample was placed in a pre-weighed test tube. The samples were weighed and counted in a gamma well counter in the Tc-99m channel, along with known fractions of the injected doses.
(§5) Fresh thrombus weight, percent injected dose (% ID)/g in the thrombus and blood obtained just prior to euthanasia and thrombus/blood and thrombus/muscle ratios were determined. From the computer-stored images, thrombus/background ratios were determined by analysis of the counts/pixel measured in regions-of-interest (ROI) drawn over the thrombus and adjacent muscle.
Series [2] has as its system thrombus. The description is as above. The conditions noted are these: Tc-99m labeled peptide, i.v., dog; for Thrombus/Blood / Thrombus/Muscle: ratio.
Excerpt: as §1, §2, §3, §4, §5
For another series, the target named is T1, somatostatin receptor (Rattus norvegicus, UniProt P30680).
T1 construct: endogenous in cells; host or cells: AR42J rat pancreatic tumor cells (membrane preparation)
The series can be described thus: Inhibition of [125I-Tyr11]somatostatin-14 binding to AR42J rat pancreatic tumor cell membranes. The conditions noted are these: [125I-Tyr11]somatostatin-14 0.5 nM, 25 min at 30° C. How it is done:
The rat pancreatic tumor cell line AR42J expressing the somatostatin receptor was cultured in Dulbecco's modified essential media (DMEM) supplemented with 10% fetal calf serum (FCS) and 8 mM glutamine in a humidified 5% CO2 atmosphere at 37° C. Harvested cells were homogenized in cold buffer (50 mM Tris-HCl, pH 7.4), and the homogenate was then centrifuged at 39,000 g for 10 min at 4° C. Pellets were washed once with buffer and then resuspended in ice-cold 10 mM Tris-HCl buffer (pH 7.4). Equal aliquots of this cell membrane preparation were then incubated with [^125I-Tyr^11]somatostatin-14 (Amersham, Arlington Heights, Ill.) at a final concentration of 0.5 nM at 750,000 cpm/mL, specific activity 2000Ci/mmol and either a peptide or peptide-rhenium complex of the invention (at a final concentration ranging from […] in 50 mM HEPES buffer, pH 7.4, containing 1% bovine serum albumin, 5 mM MgCl2, 0.02 mg/mL bacitracin, 0.02 mg/mL phenylmethyl-sulfonylfluoride and 200,000 IU Trasylol) for 25 min at 30° C.
After incubation, this membrane mixture was filtered through a polyethyleneimine-washed GC/F filter (Whatman Ltd., Maidstone, England) using a filtration manifold, and the residue remaining on the filter was washed three times with 5 mL cold HEPES buffer. The filter and a sample of the filter washings were then counted on a gamma counter. […]

The test system of series [3] is fresh human platelet-rich plasma. The series can be described thus: Platelet aggregation inhibition assay (ADP-induced). The conditions noted are these: ADP 10 to 15 micromolar, human platelet-rich plasma; read-out: IC50. Type of series: cell-based. As for the experimental part:
Platelet aggregation studies were performed essentially as described by Zucker (1989, Methods in Enzymol. 169: 117–133). Briefly, platelet aggregation was assayed with or without putative platelet aggregation inhibitory compounds using fresh human platelet-rich plasma, comprising 300,000 platelets per microlitre. Platelet aggregation was induced by the addition of a solution of adenosine diphosphate to a final concentration of 10 to 15 micromolar, and the extent of platelet aggregation monitored using a Bio/Data aggregometer (Bio/Data Corp., Horsham, Pa.). The concentrations of platelet aggregation inhibitory compounds used were varied from 0.1 to 500 μg/mL. The concentration of inhibitor that reduced the extent of platelet aggregation by 50% (defined as the IC50) was determined from plots of inhibitor concentration versus extent of platelet aggregation. An inhibition curve for peptide RGDS was determined for each batch of platelets tested as a positive control.

In series [4] the test system is thrombus. The conditions noted are these: dog, in vivo, iv.
Excerpt: as §1, §2, §3, §4, §5

Read-outs that look alike come from different tables or passages of the source. Starred links: 1 amine or outer side, 2 acyl side, 3 side chain; linkers in the order of their positions; H or OH if unused. Non-standard residues stand in square brackets, D forms with d. Residues, ends and D or L forms follow the SMILES beside them. No end group written: not given here. Phe(4-Cl) = N[C@@H](Cc1ccc(Cl)cc1)C(=O)O; d2Nal = N[C@H](Cc1ccc2ccccc2c1)C(=O)O; εLys = N[C@@H](CCCCN[*:1])C(=O)[*:2]

T1 sequence (P30680 whole entry): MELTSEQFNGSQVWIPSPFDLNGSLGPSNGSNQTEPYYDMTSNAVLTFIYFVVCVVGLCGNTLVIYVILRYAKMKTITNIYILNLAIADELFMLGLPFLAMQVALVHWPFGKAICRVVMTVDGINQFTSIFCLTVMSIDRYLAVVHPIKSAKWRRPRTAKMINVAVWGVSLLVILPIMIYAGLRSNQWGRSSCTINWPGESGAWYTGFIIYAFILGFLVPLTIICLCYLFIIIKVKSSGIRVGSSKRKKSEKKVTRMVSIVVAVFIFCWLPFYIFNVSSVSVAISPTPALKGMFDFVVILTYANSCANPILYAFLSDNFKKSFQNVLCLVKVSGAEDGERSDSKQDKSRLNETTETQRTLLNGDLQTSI

For orientation: tissue uptake means the share of the injected amount in each gram of the tissue. Regarding `CC(=O)NCSC[C@H](NC(=O)CNC(=O)CNC(=O)[C@@H]1CSCC(=O)N[C@H](Cc2ccc(O)cc2)C(=O)N[C@@H](Cc2ccc(C(=N)N)cc2)C(=O)NCC(=O)N[C@@H](CC(=O)O)C(=O)N1)C(=O)NCC(=O)N[C@@H](CSCNC(C)=O)C(=O)NCC(=O)NCC(=O)N[C@@H](CSCC(=O)NCCCC[C@H](NC(=O)CSC[C@H](NC(=O)CNC(=O)CNC(=O)[C@H](CSCNC(C)=O)NC(=O)CNC(=O)[C@H](CSCNC(C)=O)NC(=O)CNC(=O)CNC(=O)[C@@H]1CSCC(=O)N[C@H](Cc2ccc(O)cc2)C(=O)N[C@@H](Cc2ccc(C(=N)N)cc2)C(=O)NCC(=O)N[C@@H](CC(=O)O)C(=O)N1)C(N)=O)C(=O)NCCCC[C@H](N)C(=O)NCC(=O)N[C@@H](CS)C(N)=O)C(N)=O` [Peptide P747, (CH2CO.YD.Amp.GDCGGCAcmGCAcmGGC.amide)2(CH2CO)2K(ε-K)GC.amide], the tissue uptake at 4 h in series [1] came out at 0.043 %ID/g. Also, in the series with thrombus [2], the Thrombus/Blood is on record as 15 and the Thrombus/Muscle amounted to 70.

A word on the Ki: it is the equilibrium dissociation constant of an inhibitor or competing ligand from its target. Higher therefore signals weaker binding. Turning to `CC(=O)N[C@H](Cc1ccc2ccccc2c1)C(=O)N[C@@H](Cc1ccc(Cl)cc1)C(=O)N[C@@H](Cc1ccc(O)cc1)C(=O)N[C@H](Cc1c[nH]c2ccccc12)C(=O)N[C@@H](CCCCN)C(=O)N[C@H](C(=O)N[C@@H](Cc1ccccc1)C(=O)N[C@H](C(=O)NCCCC[C@H](N)C(=O)NCC(=O)N[C@@H](CS)C(=O)N[C@@H](CCCCN)C(=O)N[C@@H](CCCCN)C(N)=O)[C@@H](C)O)[C@@H](C)O` [Peptide P548, acetyl.NalD.Cpa.YWDKTFT(ε-K)GCKK.amide] (Ac-[d2Nal][Phe(4-Cl)]Y[dW]KTFT[εLys]GCKK-NH2), on somatostatin receptor, the affinity, expressed as Ki, was 3.6 nM.

Usually IC50 stands for the concentration needed to halve the response being measured. With “(CH2CO.YD.Apc.GDCGGCAcmGCAcmGGC.amide)2(CH2CO)2K(ε-K)GC.amide [Peptide P667]”, the IC50 in series [3] turned out to be 110 nM. For the same molecule, the “% ID/g Thrombus” value with thrombus [2] (after the final image (4h post-injection)) came out at 0.006 % ID/g. In the series with thrombus [2], the Thrombus/Blood was 5.9 and the Thrombus/Muscle came to 30.

As for `CC(=O)NCSC[C@H](NC(=O)CNC(=O)CNC(=O)[C@@H]1CSCC(=O)N[C@H](Cc2ccc(O)cc2)C(=O)N[C@@H](CSCCCN)C(=O)NCC(=O)N[C@@H](CC(=O)O)C(=O)N1)C(=O)NCC(=O)N[C@@H](CSCNC(C)=O)C(=O)NCC(=O)NCC(=O)N[C@@H](CSCC(=O)NCCCC[C@H](NC(=O)CSC[C@H](NC(=O)CNC(=O)CNC(=O)[C@H](CSCNC(C)=O)NC(=O)CNC(=O)[C@H](CSCNC(C)=O)NC(=O)CNC(=O)CNC(=O)[C@@H]1CSCC(=O)N[C@H](Cc2ccc(O)cc2)C(=O)N[C@@H](CSCCCN)C(=O)NCC(=O)N[C@@H](CC(=O)O)C(=O)N1)C(N)=O)C(=O)NCCCC[C@H](NC(=O)[C@H](CCCCNC(=O)CSC[C@H](NC(=O)CNC(=O)CNC(=O)[C@H](CSCNC(C)=O)NC(=O)CNC(=O)[C@H](CSCNC(C)=O)NC(=O)CNC(=O)CNC(=O)[C@@H]1CSCC(=O)N[C@H](Cc2ccc(O)cc2)C(=O)N[C@@H](CSCCCN)C(=O)NCC(=O)N[C@@H](CC(=O)O)C(=O)N1)C(N)=O)NC(=O)CSC[C@H](NC(=O)CNC(=O)CNC(=O)[C@H](CSCNC(C)=O)NC(=O)CNC(=O)[C@H](CSCNC(C)=O)NC(=O)CNC(=O)CNC(=O)[C@@H]1CSCC(=O)N[C@H](Cc2ccc(O)cc2)C(=O)N[C@@H](CSCCCN)C(=O)NCC(=O)N[C@@H](CC(=O)O)C(=O)N1)C(N)=O)C(=O)NCCCC[C@H](N)C(=O)NCC(=O)N[C@@H](CS)C(=O)NCC(N)=O)C(N)=O` [Peptide P688, {(CH2CO.YD.Apc. GDCGGCAcmGCAcmGGCamide)2(CH2CO)2K}2.K(ε-K)GCG.amide], the IC50 in series [3] was found to be 26 nM.

As to “(CH2CO.YDApc.GDCKGCG.amide)2(CH2CO)2K(ε-K)GC.amide [Peptide P748]”, in series [3], the IC50 is 29 nM. In the series on thrombus [4], the Thrombus/Blood is 5.8 and the Thrombus/Muscle is 90.

“AKCGGGFDYWDKTFT.amide (AKCGGGFDYWDKTFT-NH2) [Peptide P398]” returned a Ki with somatostatin receptor of 1.4 nM.
